BigSolDB 2.1

Conditions: in formic acid

OC1OC[C@@H](O)[C@H](O)[C@H]1O (some centres undefined)
Conditions | solubility (mole fraction)
300.45 K | 0.13
301.85 K | 0.139
303.25 K | 0.146
305.15 K | 0.154
306.75 K | 0.161
308.15 K | 0.168
309.95 K | 0.175
311.65 K | 0.182
313.45 K | 0.191
315.75 K | 0.2
317.45 K | 0.208
320.35 K | 0.223
323.15 K | 0.237
324.85 K | 0.244
